Test results reported in patent US20070025986A1, “Modulation of HCN channels by second messengers” (priority 2003, published 2007).

Legend:
[1] = system: DmHCN (HCN channel of Drosophila melanogaster); assay type: cell-based
[2] = system: HCN4 channel; conditions: for Effect on channel gating: 200 nM
[3] = system: HCN2 channel; conditions: for Effect on channel gating: 200 nM
Experimental: Electrophysiology-General. Recordings were made in either IOP (excised cell-free inside out patch) or 2 MEV (two microelectrode voltage clamp) configurations from Xenopus oocytes 1-5 days after cRNA injection. In both configurations, the Ag—AgCl ground wire(s) were connected to the bath solution by 3M KCl-2% agar salt bridge electrodes placed downstream of, but close to, the oocyte. All recordings were obtained at room temperature (23-25° C.).
Electrophysiology-Two microelectrode voltage-clamp recordings. Data were acquired using a Warner Instruments (Hamden, Conn.) OC-725B amplifier, filtered at 1 kHz then digitized at 2 kHz using an ITC-18 interface and recorded with Pulse software (as described above). For most experiments, oocytes were bathed in a recording solution containing (in mM): 107 KCl, 5 NaCl, 10 HEPES (free acid), and 2 MgCl2, pH 7.4, with NaOH. However, to screen for poorly expressing constructs a recording solution containing (in mM): 112 KCl, 10 HEPES (free acid), and 2 MgCl2, pH 7.4, with KOH, was used to maximize the amplitude of the currents. Under these conditions, tail currents were recorded at the holding potential, −30 mV. The microelectrodes were filled with 3M KCl and had resistances of 0.1-0.5 MΩ (I passing) and 1-4 MΩ (V sensing). An active virtual ground was used to clamp the bath.
Analysis of electrophysiological recordings. “Steady-state” activation curves were determined from the amplitude of tail currents observed after hyperpolarizing voltage steps on return to the indicated potential. For IOP-clamp experiments, the holding potential and the tail potential was −40 mV. For 2 MEV-clamp experiments, the oocytes were held at −30 mV and the tail amplitudes measured at 0 mV. To avert any systematic bias of the determination of the V1/2 in a particular drug and clone combination, at least 10 cells from at least 5 donor frogs were routinely measured with recordings made across a number of weeks.
Tail current amplitudes were measured by averaging the current during the plateau of the tail after allowing the voltage-clamp to settle and the uncompensated linear capacitance to decay and subtracting from this the baseline current recorded 3s later. […] Current values were plotted versus the hyperpolarization step voltage and fitted with the Boltzmann equation: I(V=A1+A2/{1+exp[(V−V1/2)/s]}, where A1 is an offset caused by a nonzero holding current, A2 is the maximal tail current amplitude, V is voltage during the hyperpolarizing test pulse in millivolts, and V1/2 is the activation midpoint voltage. For each experiment, the tail current data were fitted with the above equation. To average the activation data from different experiments, the tail current amplitudes, I(V), from each individual experiment were normalized by first subtracting the derived A1 parameter and then dividing by A2. The normalized data at each voltage were then averaged, and the averaged data were fitted by the Boltzmann equation (with A1 set at 0 and A2 set at 1).

[4] = system: HCN1 channel; assay: Two microelectrode voltage clamp (2MEV) of HCN1 and HCN1 mutants expressed in Xenopus oocytes; assay type: cell-based, mouse; conditions: for Effect on channel gating: wild type HCN1, 200 nM; for Effect on channel activation: HCN1-R538E, 30 μM, 60 minutes perfusion
[5] = system: plant channel KAT1; conditions: 200 nM 4βPMA
[6] = system: DAG concentration in Xenopus oocytes; conditions: 60 minute incubation; cited from earlier work
[7] = system: HCN1 channel (wild type, CNBD-disabled and deletion constructs); assay: Modulation of HCN1 activation gating by the PTK inhibitor genistein; assay type: cell-based, mouse
Experimental: (§1) The effect of PTK inhibitor genistein on HCN channel activation was studies using wild type and CNBD-disabled HCN channels. Recordings were made in the presence and absence of genistein.
(§2) Activation of wild type HCN channels and mutant HCN channels with mutation in the C-linker or CNBD domains was recorded in the presence and absence of PTK inhibitor genistein.
The results in FIG. 18B show the effect of genistein treatment to activation of HCN1-R538E, HCN1-ΔCNBD and HCN1-ΔCterm. Left Panel: Change in V1/2 (V1/2 Final−V1/2 Initial) in control and genistein treated cells (90 μM for 30 min).

[8] = system: HCN2 channel (wild type and CNBD-disabled); assay: Modulation of HCN2 activation gating by the PTK inhibitor genistein; assay type: cell-based, mouse
Experimental: as §1, §2

With `CCCCCCCCCCCCCC(=O)O[C@@H]1[C@@H](C)[C@@]2(O)[C@@H](C=C(CO)C[C@@]3(O)C(=O)C(C)=C[C@@H]23)[C@@H]2C(C)(C)[C@]12OC(C)=O` [4αPMA] as the compound, how does the “Effect on channel gating” value [1] read?
Its value is “unaffected”.

What about the “Effect on channel gating” value [2] of the same compound?
The value was “unaffected”.

And the “Effect on channel gating” value [3]?
Its value is “unaffected”.

What about the “Effect on channel gating” value [4] of the same compound?
Its value is “unaffected”.

With `CCCCCCCCCCCCCC(=O)O[C@@H]1[C@@H](C)[C@@]2(O)[C@@H](C=C(CO)C[C@]3(O)C(=O)C(C)=C[C@@H]23)[C@@H]2C(C)(C)[C@]12OC(C)=O` [4βPMA, 4-βphorbol-1 2myristate-13-acetate] as the compound, how does the “Effect on channel gating” value [1] read?
Its value is “facilitated”.

And the “ΔV½ WILD TYPE” value [1]?
Its value is “+9 ± 4”.

And the “Effect on channel gating” value [2]?
Its value is “facilitated”.

What about the “ΔV½ WILD TYPE” value ([2]; 30 min in 200 nM 4βPMA) of the same compound?
The value was “+17 ± 7”.

What about the “Effect on channel gating” value [3] of the same compound?
Its value is “facilitated”.

And the “ΔV½ CA UNCOUPLED” value ([3]; 30 min in 200 nM 4βPMA)?
Its value is “+15 ± 2”.

What about the “ΔV½ CA UNCOUPLED H^+ UNCOUPLED” value ([3]; 30 min in 200 nM 4βPMA) of the same compound?
Its value is “+26 ± 3”.

What about the “ΔV½ WILD TYPE” value ([3]; 30 min in 200 nM 4βPMA) of the same compound?
The value was “+8 ± 2”.

And the “Effect on channel activation” value [5]?
The value was “insensitive”.

What about the “ΔV½ CA UNCOUPLED” value ([4]; HCN1, 30 min in 200 nM 4βPMA) of the same compound?
The value was “+29 ± 3”.

What about the “ΔV½ CA UNCOUPLED H^+ UNCOUPLED” value ([4]; HCN1, 30 min in 200 nM 4βPMA) of the same compound?
The value was “+32 ± 5”.

And the “ΔV½ WILD TYPE” value ([4]; HCN1, 30 min in 200 nM 4βPMA)?
The value was “+15 ± 3”.

What about the “4βPMA facilitation of gating in serine, threonine and tyrosine mutants” value ([4]; mutants of HCN1-ΔNvΔC, 200 nM 4βPMA, 30 minutes) of the same compound?
Its value is “not affected”.

And the “Effect on channel gating” value [4]?
Its value is “facilitated”.

For `Cc1nc2sccn2c(=O)c1CCN1CCC(=C(c2ccccc2)c2ccc(F)cc2)CC1` [R59022], which “DAG concentration in Xenopus oocytes” value [6] is on record?
The value was “double”.

And the “Effect on channel activation” value [4]?
The value was “facilitates”.

With `O=c1c2ccccc2[nH]c(=S)n1CCN1CCC(=C(c2ccc(F)cc2)c2ccc(F)cc2)CC1` [R59949] as the compound, how does the “DAG concentration in Xenopus oocytes” value [6] read?
Its value is “double”.

And the “Effect on channel activation” value [4]?
The value was “facilitates”.

Which “Effect on activation curve” value ([7]; HCN1-R538E (CNBD disabled)) does the source give for `O=c1c(-c2ccc(O)cc2)coc2cc(O)cc(O)c12` [genistein] here?
The value was “robust facilitation”.

And the “Genistein facilitation, Δ(ΔV1/2), compared with HCN1-R538E” value ([7]; HCN1-ΔCNBD, 90 μM for 30 min)?
The value was “the same”.

What about the “Genistein sensitivity, Δ(ΔV1/2)” value ([7]; HCN1-ΔCterm (C-linker deleted), 90 μM for 30 min) of the same compound?
The value was “insensitive”.

What about the “Effect on activation curve” value ([7]; wild type HCN1) of the same compound?
The value was “weak facilitation”.

What about the “Effect on activation curve” value ([8]; HCN2-R591E (CNBD disabled)) of the same compound?
Its value is “facilitation”.

And the Genistein facilitation ([8]; cAMP insensitive HCN2 constructs)?
Its Genistein facilitation is “independent of the CNBD”.

And the “Effect on activation curve” value ([8]; wild type HCN2)?
The value was “inhibition”.
